Reference: paper PMC8485799, “Synthesis and Antiprotozoal Profile of 3,4,5‐Trisubstituted Isoxazoles” (ChemistryOpen, 2021)
Where two headings read alike, the source gives them in different places.

Columns and labels:
[1] = system: both forms of L. amazonensis; set-up: method as in PMID 27597410; settings: cited from earlier work
[2] = system: promastigote forms of Leishmania amazonensis (WHOM/BR/75/JOSEFA strain); assay: Antiproliferative assay (XTT), promastigote forms, 72 h; assay type: cell-based; settings: for IC50: promastigote form, 72 h, XTT, read-out: L. amazonensis IC50; for SIL-F, selectivity index (Fibroblast CC50/L. amazonensis IC50): fibroblast vs promastigote; for SIL-M, selectivity index (Macrophages CC50/L. amazonensis IC50): macrophages vs promastigote
Method in brief: (§1)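 Parasites at 1×10^6 mL^−1 with compound (DMSO stock diluted in medium): L. amazonensis promastigotes in Warren medium + 10% FBS at 25 °C for 72 h, T. cruzi epimastigotes in LIT medium + 10% FBS at 28 °C for 96 h. Viability by XTT/PMS for 4 h, absorbance at 450 nm. IC50 from % viable versus control.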

fibroblast line (L929) = assay: Cytotoxicity assay in mammalian cells (MTT), fibroblasts, 72 h; assay type: cell-based
Method in brief: (§2)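 Cells pre-grown 24 h to confluence (L929 2.5×10^5, J774 A1 5×10^5 cells.mL^−1), then exposed to compound dilutions at 37 °C, 5 % CO2: L929 in DMEM/10 % FBS for 72 h, J774 A1 in RPMI‐1640/10 % FBS for 48 h. MTT (2 mg.mL^−1, 4 h), formazan read at […]; CC50 from viability versus untreated controls.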

[3] = system: epimastigote forms of Trypanosoma cruzi (Y strain); assay: Antiproliferative assay (XTT), epimastigote forms, 96 h; assay type: cell-based; settings: for IC50: epimastigote form, 96 h, XTT, read-out: T. cruzi IC50; for SIT-F, selectivity index (Fibroblast CC50/T. cruzi IC50): fibroblast vs epimastigote; for SIT-M, selectivity index (Macrophages CC50/T. cruzi IC50): macrophages vs epimastigote
Method in brief: as §1

macrophages (J774 A1) = assay: Cytotoxicity assay in mammalian cells (MTT), macrophages, 48 h; assay type: cell-based
Method in brief: as §2

[4] = Cytotoxicity assay in mammalian cells (MTT), fibroblasts, 72 h; assay type: cell-based; settings: mouse, L929 fibroblast cells, pH 7.2; 50 % inhibition of fibroblast growth, 72 h, MTT
Method in brief: as §2

[5] = Cytotoxicity assay in mammalian cells (MTT), macrophages, 48 h; assay type: cell-based; settings: mouse, J774 A1 macrophages, pH 7.2; 50 % inhibition of macrophages growth, 48 h, MTT
Method in brief: as §2

IC50 [3] | melting point | IC50 ([3]; Trypanosoma cruzi) | Structure (SMILES) | Activity against both forms of L. amazonensis [1] | IC50 [2] | CC50 (fibroblast line (L929)) | CC50 (macrophages (J774 A1)) | IC50 ([2]; Leishmania amazonensis) | SIL-F, selectivity index (Fibroblast CC50/L. amazonensis IC50) [2] | SIL-M, selectivity index (Macrophages CC50/L. amazonensis IC50) [2] | Selectivity index (SI), overall ([2]; span over both cell lines (fibroblast, macrophages) and both parasites (L. amazonensis, T. cruzi)) | CC50 at 72 h [4] | SIT-F, selectivity index (Fibroblast CC50/T. cruzi IC50) [3] | SIT-M, selectivity index (Macrophages CC50/T. cruzi IC50) [3] | CC50 at 48 h [5]
– | – | – | O=C(N/N=C/c1cccs1)c1nn(-c2ccccc2)c(=O)c2c1cnn2-c1ccccc1 [IV] | good activity values | – | – | – | – | – | – | – | – | – | – | –
54.2 ± 3 µM | – | – | CCOC(=O)c1noc(-c2ccc([N+](=O)[O-])cc2)c1CNc1ccccc1 [2 aa, 3‐Carboxyethyl‐4‐(phenyl)aminomethyl‐5‐(4‐nitrophenyl)isoxazole] | – | 34.8 ± 1.7 µM | 270 ± 8.9 µM | 202 ± 6.5 µM | – | – | – | – | – | – | – | –
– | – | – | O=C(N/N=C/c1ccc(-c2cccs2)s1)c1nn(-c2ccccc2)c(=O)c2c1cnn2-c1ccccc1 [V] | good activity values | – | – | – | – | – | – | – | – | – | – | –
– | 132.2 to 135.4 °C | 15 ± 0.8 µM | COc1ccc(NCc2c(C(=O)NN)noc2-c2ccccc2)cc1 [3 bc] | – | – | – | – | 12.4 ± 1.7 µM | 15.35 | 14.97 | greater than 14 | 190 ± 3.7 µM | 12.69 | 12.38 | 186 ± 6.1 µM
– | 202.4 to 203.9 °C | 39.4 ± 3.1 µM | O=C(N/N=C/c1ccccn1)c1noc(-c2ccc(F)cc2)c1CNc1ccc(Cl)cc1 [5 cb] | – | – | – | – | 22.6 ± 5 µM | 6.81 | 4.96 | – | 154 ± 7.8 µM | 3.91 | 2.84 | 112 ± 6.8 µM
– | 172.9 to 173.4 °C | 32.9 ± 3.7 µM | CCOC(=O)c1noc(-c2ccc(Cl)cc2)c1CNc1ccccc1 [2 da] | – | – | – | – | 29.9 ± 2.1 µM | 5.28 | 5.17 | – | 158 ± 7.7 µM | 4.80 | 4.70 | 155 ± 3 µM
– | 211.1 to 213.9 °C | 19 ± 0.7 µM | O=C(N/N=C/c1ccc(-c2cccs2)s1)c1noc(-c2ccccc2)c1CNc1ccc(Cl)cc1 [6 bb] | – | – | – | – | 18.4 ± 1.2 µM | 12.31 | 10.22 | – | 226 ± 8.7 µM | 11.92 | 9.90 | 188 ± 7.4 µM
– | 167.5 to 169.3 °C | 71 ± 4.7 µM | O=C(N/N=C/c1ccccc1)c1noc(-c2ccc(Cl)cc2)c1CNc1ccc(Cl)cc1 [4 db] | – | – | – | – | 67.4 ± 3.9 µM | 6.00 | 5.86 | – | 404.7 ± 4 µM | 5.70 | 5.56 | 395 ± 9.9 µM
– | 157 to 158.8 °C | 49.5 ± 2.9 µM | COc1ccc(NCc2c(C(=O)NN)noc2-c2ccc(Cl)cc2)cc1 [3 dc] | – | – | – | – | 55.8 ± 3.9 µM | 5.55 | 3.76 | – | 310 ± 8.9 µM | 6.25 | 4.24 | 210 ± 3.5 µM
– | 180.5 to 182.9 °C | 72.6 ± 3.8 µM | O=C(N/N=C/c1ccccn1)c1noc(-c2ccc(Cl)cc2)c1CNc1ccccc1 [5 da] | – | – | – | – | 69 ± 8.7 µM | 4.32 | 4.19 | – | 298 ± 5.7 µM | 4.10 | 3.98 | 289 ± 9.5 µM
– | 194.8 to 195.6 °C | 33.6 ± 4.4 µM | O=C(N/N=C/c1ccccn1)c1noc(-c2ccccc2)c1CNc1ccccc1 [5 ba] | – | – | – | – | 35.8 ± 4.8 µM | 9.20 | 8.47 | – | 330 ± 5.6 µM | 9.80 | 9.02 | 303 ± 9.5 µM
